Test results taken from US20240365781A1, “SYNERGISTICALLY EFFECTIVE HERBICIDE COMPOSITION COMPRISING PELARGONIC ACID AND FLAZASULFURON” (Belchim Crop Protection NV, priority 2017, published 2024).

Legend:
Assay type in all cases: in vivo
[1] = test system: Epilobium tetragonum; assay: post-emergence field trial under rows of vines, 150-200 L water/ha (Examples 6-9); conditions: flazasulfuron 40 g/ha
Source text: (§1) The expected activity of a given combination of two or three herbicides can be calculated as follows according to a calculation method by Colby (cf. COLBY, S. R.: “Calculating synergistic and antagonistic responses of herbicide combinations”, • Weeds 15, pages 20-22, 1967): • If X=% damage by herbicide (A) at an application rate of m g/ha, • Y=% damage by herbicide (B) at an application rate of n g/ha, • E=the expected damage by herbicides (A) and (B) at application rates of m and n […] and, • then for a combination:
(§2) Individual compositions comprising pelargonic acid or flazasulfuron are compared with a herbicide composition according to the invention comprising pelargonic acid and flazasulfuron.
(§3) Herbicidal activity was determined by performing a post-emergence test. […] The corresponding mixture was in the form of a spray solution. Besides, spray solutions of individual compositions comprising pelargonic acid or flazasulfuron were used.
(§4) The spray solution was applied on plants of unwanted vegetation present on fields where perennial crops were grown.
(§5) After 5 to 88 days after application of the spray solution, the degree of damage to the unwanted vegetation is rated in % of plants of unwanted vegetation that were killed. Tests were performed on test fields (field trials).

[2] = test system: Stellaria media; assay: as above; conditions: flazasulfuron 40 g/ha
Source text: as §1, §2, §3, §4, §5

[3] = test system: Convolvulus arvensis; assay: as above; conditions: flazasulfuron 40 g/ha
Source text: as §1, §2, §3, §4, §5

[4] = test system: Senecio vulgaris; assay: as above; conditions: flazasulfuron 40 g/ha
Source text: as §1, §2, §3, §4, §5

[5] = test system: Digitaria sanguinalis and Setaria pumila; assay: as above; conditions: flazasulfuron 40 g/ha
Source text: as §1, §2, §3, §4, §5

[6] = test system: Anagallis arvensis; assay: post-emergence test, field trial (Examples 1-5); conditions: 3 d, FT; pelargonic acid 5440 g/ha, flazasulfuron 50 g/ha; 8 L/ha
Source text: as §1, §2
(§6) Herbicidal activity was determined by performing a post-emergence test. […] The corresponding mixture was in the form of a spray liquor. Besides, spray liquors of individual compositions comprising pelargonic acid or flazasulfuron were used.
(§7) Tests were performed on test fields (field trials) or in pots (pot trials).

[7] = test system: Erodium cicuta; assay: post-emergence test, field trial (Examples 1-5); conditions: 28 d, FT; pelargonic acid 5440 g/ha, flazasulfuron 50 g/ha; 8 L/ha
Source text: as §1, §2, §6, §7

[8] = test system: Veronica persica; assay: post-emergence test, field trial (Examples 1-5); conditions: FT, pelargonic acid 5440 g/ha, flazasulfuron 50 g/ha, 8 L/ha
Source text: as §1, §2, §6, §7

[9] = test system: Convolvulus arvensis L.; assay: post-emergence test, field trial (Examples 1-5); conditions: 3 d, FT; pelargonic acid 5440 g/ha, flazasulfuron 50 g/ha; 8 L/ha
Source text: as §1, §2, §6, §7

[10] = test system: Chenopodium album; assay: post-emergence test, field trial (Examples 1-5); conditions: FT
Source text: as §1, §2, §6, §7

[11] = test system: Plantago major; assay: post-emergence test, field trial (Examples 1-5); conditions: FT
Source text: as §1, §2, §6, §7

[12] = 7 d, pelargonic acid 10880 g/ha
[13] = 14 d, pelargonic acid 6800 g/ha
[14] = 14 d, pelargonic acid 8160 g/ha
[15] = 14 d, pelargonic acid 10880 g/ha
[16] = 14 d, pelargonic acid 5440 g/ha
[17] = 28 d, pelargonic acid 5440 g/ha
[18] = 28 d, pelargonic acid 6800 g/ha
[19] = 28 d, pelargonic acid 8160 g/ha
[20] = 28 d, pelargonic acid 10880 g/ha
[21] = 65 d, pelargonic acid 5440 g/ha
[22] = 65 d, pelargonic acid 8160 g/ha
[23] = 65 d, pelargonic acid 10880 g/ha
[24] = 3 d, pelargonic acid 10880 g/ha, flazasulfuron 25 g/ha, 16 L/ha
[25] = 3 d, pelargonic acid 10880 g/ha, flazasulfuron 50 g/ha, 16 L/ha
[26] = 3 d, pelargonic acid 21760 g/ha, flazasulfuron 50 g/ha, 32 L/ha
[27] = 7 d, pelargonic acid 10880 g/ha, flazasulfuron 25 g/ha, 16 L/ha
[28] = 7 d, pelargonic acid 10880 g/ha, flazasulfuron 50 g/ha, 16 L/ha
[29] = 7 d, pelargonic acid 21760 g/ha, flazasulfuron 25 g/ha, 32 L/ha
[30] = 7 d, pelargonic acid 21760 g/ha, flazasulfuron 50 g/ha, 32 L/ha
[31] = 13 d, pelargonic acid 10880 g/ha, flazasulfuron 25 g/ha, 16 L/ha
[32] = 13 d, pelargonic acid 10880 g/ha, flazasulfuron 50 g/ha, 16 L/ha
[33] = 13 d, pelargonic acid 21760 g/ha, flazasulfuron 25 g/ha, 32 L/ha
[34] = 13 d, pelargonic acid 21760 g/ha, flazasulfuron 50 g/ha, 32 L/ha
[35] = 23 d, pelargonic acid 21760 g/ha, flazasulfuron 25 g/ha, 32 L/ha
[36] = 23 d, pelargonic acid 21760 g/ha, flazasulfuron 50 g/ha, 32 L/ha
[37] = 30 d, pelargonic acid 10880 g/ha, flazasulfuron 25 g/ha, 16 L/ha
[38] = 30 d, pelargonic acid 10880 g/ha, flazasulfuron 50 g/ha, 16 L/ha
[39] = 30 d, pelargonic acid 21760 g/ha, flazasulfuron 25 g/ha, 32 L/ha
[40] = 30 d, pelargonic acid 21760 g/ha, flazasulfuron 50 g/ha, 32 L/ha
[41] = 38 d, pelargonic acid 10880 g/ha, flazasulfuron 25 g/ha, 16 L/ha
[42] = 38 d, pelargonic acid 10880 g/ha, flazasulfuron 50 g/ha, 16 L/ha
[43] = 38 d, pelargonic acid 21760 g/ha, flazasulfuron 25 g/ha, 32 L/ha
[44] = 38 d, pelargonic acid 21760 g/ha, flazasulfuron 50 g/ha, 32 L/ha

`COc1cc(OC)nc(NC(=O)NS(=O)(=O)c2ncccc2C(F)(F)F)n1` [Flazasulfuron, 1-(4,6-dimethoxypyrimidin-2-yl)-3-(3-trifluoromethyl-2-pyridylsulfonyl)urea] showed a herbicidal effect ([1]; 7 d, pelargonic acid 5440 g/ha) of 61%, a herbicidal effect ([1]; 7 d, pelargonic acid 8160 g/ha) of 61% and a herbicidal effect [1, 12] of 61%. The herbicidal effect [1, 13] was 96%, the herbicidal effect [1, 14] was 96% and the herbicidal effect [1, 15] was 96%. It also gave a herbicidal effect ([1]; 27 d, pelargonic acid 6800 g/ha) of 96%, a herbicidal effect ([1]; 27 d, pelargonic acid 8160 g/ha) of 96% and a herbicidal effect ([1]; 27 d, pelargonic acid 10880 g/ha) of 96%. The herbicidal effect ([1]; 56 d, pelargonic acid 6800 g/ha) was 96%, the herbicidal effect ([1]; 56 d, pelargonic acid 8160 g/ha) was 96% and the herbicidal effect ([1]; 56 d, pelargonic acid 10880 g/ha) was 96%. The herbicidal effect ([2]; 7 d, pelargonic acid 8160 g/ha) was 30%, the herbicidal effect [2, 12] was 30% and the herbicidal effect [2, 16] was 54%. For the same compound, the herbicidal effect [2, 13] was 54%, the herbicidal effect [2, 14] was 54% and the herbicidal effect [2, 15] was 54%. For the same compound, the herbicidal effect [2, 17] was 86%, the herbicidal effect [2, 18] was 86% and the herbicidal effect [2, 19] was 86%. The herbicidal effect [2, 20] was 86%, the herbicidal effect ([3]; 7 d, pelargonic acid 5440 g/ha) was 73% and the herbicidal effect ([3]; 7 d, pelargonic acid 6800 g/ha) was 73%. It also gave a herbicidal effect ([3]; 7 d, pelargonic acid 8160 g/ha) of 73%, a herbicidal effect [3, 16] of 88% and a herbicidal effect [3, 13] of 88%. The herbicidal effect [3, 14] was 88%, the herbicidal effect [3, 15] was 88% and the herbicidal effect [3, 18] was 74%. It also gave a herbicidal effect [3, 19] of 74%, a herbicidal effect [3, 20] of 74% and a herbicidal effect [3, 21] of 0%. It also gave a herbicidal effect ([3]; 65 d, pelargonic acid 6800 g/ha) of 0%, a herbicidal effect [3, 22] of 0% and a herbicidal effect [3, 23] of 0%. The herbicidal effect ([4]; 7 d, pelargonic acid 5440 g/ha) was 20%, the herbicidal effect ([4]; 7 d, pelargonic acid 6800 g/ha) was 20% and the herbicidal effect [4, 16] was 20%. The herbicidal effect [4, 13] was 20%, the herbicidal effect [4, 14] was 20% and the herbicidal effect ([4]; 31 d, pelargonic acid 5440 g/ha) was 50%. For the same compound, the herbicidal effect ([4]; 31 d, pelargonic acid 6800 g/ha) was 50%, the herbicidal effect ([4]; 31 d, pelargonic acid 8160 g/ha) was 50% and the herbicidal effect ([4]; 31 d, pelargonic acid 10880 g/ha) was 50%. The herbicidal effect ([4]; 58 d, pelargonic acid 5440 g/ha) was 97%, the herbicidal effect ([4]; 58 d, pelargonic acid 8160 g/ha) was 97% and the herbicidal effect ([4]; 58 d, pelargonic acid 10880 g/ha) was 97%. It also gave a herbicidal effect ([5]; 7 d, pelargonic acid 5440 g/ha) of 13%, a herbicidal effect ([5]; 7 d, pelargonic acid 6800 g/ha) of 13% and a herbicidal effect ([5]; 7 d, pelargonic acid 8160 g/ha) of 13%. It also gave a herbicidal effect [5, 12] of 13%, a herbicidal effect [5, 16] of 91% and a herbicidal effect [5, 14] of 91%. It also gave a herbicidal effect [5, 15] of 91%, a herbicidal effect [5, 17] of 90% and a herbicidal effect [5, 18] of 90%. It also gave a herbicidal effect [5, 19] of 90%, a herbicidal effect [5, 20] of 90% and a herbicidal effect [5, 21] of 98%. The herbicidal effect [5, 22] was 98%, the herbicidal effect [5, 23] was 98% and the herbicidal effect [6] was 1.3%. It also gave a herbicidal effect [7] of 95%, a herbicidal effect ([8]; 3 d) of 2.5% and a herbicidal effect ([8]; 7 d) of 7.5%. It also gave a herbicidal effect ([8]; 56 d) of 16.3%, a herbicidal effect [9] of 0% and a herbicidal effect [10, 24] of 10%. For the same compound, the herbicidal effect [10, 25] was 15%, the herbicidal effect ([10]; 3 d, pelargonic acid 21760 g/ha, flazasulfuron 25 g/ha, 32 L/ha) was 10% and the herbicidal effect [10, 26] was 15%. It also gave a herbicidal effect [10, 27] of 40%, a herbicidal effect [10, 28] of 0% and a herbicidal effect [10, 29] of 40%. For the same compound, the herbicidal effect [10, 30] was 0%, the herbicidal effect [10, 31] was 15% and the herbicidal effect [10, 32] was 0%. For the same compound, the herbicidal effect [10, 33] was 15%, the herbicidal effect [10, 34] was 0% and the herbicidal effect ([10]; 23 d, pelargonic acid 10880 g/ha, flazasulfuron 25 g/ha, 16 L/ha) was 20%. The herbicidal effect [10, 35] was 20%, the herbicidal effect [10, 36] was 0% and the herbicidal effect [10, 37] was 20%. It also gave a herbicidal effect [10, 38] of 0%, a herbicidal effect [10, 39] of 20% and a herbicidal effect [10, 40] of 0%. It also gave a herbicidal effect [10, 41] of 20%, a herbicidal effect [10, 42] of 0% and a herbicidal effect [10, 43] of 20%. For the same compound, the herbicidal effect [10, 44] was 0%, the herbicidal effect [11, 24] was 0% and the herbicidal effect [11, 25] was 10%. It also gave a herbicidal effect [11, 26] of 10%, a herbicidal effect [11, 27] of 25% and a herbicidal effect [11, 28] of 0%. For the same compound, the herbicidal effect [11, 29] was 25%, the herbicidal effect [11, 30] was 0% and the herbicidal effect [11, 31] was 10%. For the same compound, the herbicidal effect [11, 32] was 20%, the herbicidal effect [11, 33] was 10% and the herbicidal effect [11, 34] was 20%. It also gave a herbicidal effect [11, 35] of 10%, a herbicidal effect [11, 36] of 0% and a herbicidal effect [11, 37] of 35%. The herbicidal effect [11, 38] was 0%, the herbicidal effect [11, 39] was 35% and the herbicidal effect [11, 40] was 0%. The herbicidal effect [11, 41] was 10%, the herbicidal effect [11, 42] was 10% and the herbicidal effect [11, 43] was 10%. The herbicidal effect [11, 44] was 10%.
